Experimental data from US20120245201A1, “Isopropylphenidate for Treatment of Attention-Deficit/Hyperactivity Disorder and Fatigue-Related Disorders and Conditions” (priority 2009, published 2012).

Experiments:
[1] = target: T1, human carboxylesterase 1 (hCES1) (Homo sapiens, UniProt P23141); assay: Hydrolysis to ritalinic acid by recombinant hCES1 (s9 fraction of transfected cells); type: in vitro ADME; conditions: 1 mM substrate, 60 min
T1 construct: expressed in transfected cells
T1 sequence (P23141 18-567): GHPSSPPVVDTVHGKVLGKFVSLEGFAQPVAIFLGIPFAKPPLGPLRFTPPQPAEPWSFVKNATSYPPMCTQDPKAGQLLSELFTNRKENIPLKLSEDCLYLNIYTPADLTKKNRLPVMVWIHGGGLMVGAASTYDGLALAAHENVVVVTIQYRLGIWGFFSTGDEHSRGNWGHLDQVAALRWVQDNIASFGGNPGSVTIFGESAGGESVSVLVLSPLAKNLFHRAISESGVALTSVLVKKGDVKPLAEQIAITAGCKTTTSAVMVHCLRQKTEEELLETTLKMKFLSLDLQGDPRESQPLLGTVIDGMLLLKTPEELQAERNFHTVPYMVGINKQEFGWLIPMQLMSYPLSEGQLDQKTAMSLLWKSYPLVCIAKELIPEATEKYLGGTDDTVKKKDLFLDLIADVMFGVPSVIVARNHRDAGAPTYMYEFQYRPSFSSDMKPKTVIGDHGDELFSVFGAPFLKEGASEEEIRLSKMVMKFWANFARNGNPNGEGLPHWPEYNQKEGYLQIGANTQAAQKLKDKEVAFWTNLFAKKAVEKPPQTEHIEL
Experimental: FIG. 2—Hydrolysis of methylphenidate (MPH) and isopropylphenidate (IPH) by recombinant human CES1, HLM, HIM. After incubation with CES 1 transfected human cells, HLM, and HIM at 37° C. for 60 min, the metabolite RA produced via hydrolysis of MPH and IPH was determined by HPLC. Data are presented as mean±SEM of 3 to 6 independent experiments.
Determination of Relative Hydrolytic Rates of MPH and IPH. The assessment of relative rates of hydrolysis of the two ester compounds utilized both cell culture and human liver microsomes (HLM) and human intestinal microsomes (HIM). The human carboxylesterase 1 (hCES1) s9 fraction was prepared utilizing a novel method developed in the inventors' laboratory previously (Zhu et al., 2008). Hydrolysis of IPH and MPH by hCES1, HLM, and human intestinal microsomes was assessed by incubating the substrates with the respective enzymes and measuring the formation of the major metabolite RA formed via ester hydrolysis. Briefly, 50 μl of freshly prepared substrates (IPH and MPH) was mixed with 50 μl of enzymes in 1.5 ml Eppendorf tubes yielding a total volume of 100 μl. […] Concentrations of the primary hydrolytic product of the two compounds, RA were determined utilizing a validated HPLC method previously described.

[2] = target: T2, human norepinephrine (NE) transporter (NET) (Homo sapiens, UniProt P23975); assay: Norepinephrine transporter binding assay ([3H]nisoxetine, CEREP)
T2 construct: host or cells: CHO cells, cell membrane homogenates
T2 sequence (P23975 whole entry): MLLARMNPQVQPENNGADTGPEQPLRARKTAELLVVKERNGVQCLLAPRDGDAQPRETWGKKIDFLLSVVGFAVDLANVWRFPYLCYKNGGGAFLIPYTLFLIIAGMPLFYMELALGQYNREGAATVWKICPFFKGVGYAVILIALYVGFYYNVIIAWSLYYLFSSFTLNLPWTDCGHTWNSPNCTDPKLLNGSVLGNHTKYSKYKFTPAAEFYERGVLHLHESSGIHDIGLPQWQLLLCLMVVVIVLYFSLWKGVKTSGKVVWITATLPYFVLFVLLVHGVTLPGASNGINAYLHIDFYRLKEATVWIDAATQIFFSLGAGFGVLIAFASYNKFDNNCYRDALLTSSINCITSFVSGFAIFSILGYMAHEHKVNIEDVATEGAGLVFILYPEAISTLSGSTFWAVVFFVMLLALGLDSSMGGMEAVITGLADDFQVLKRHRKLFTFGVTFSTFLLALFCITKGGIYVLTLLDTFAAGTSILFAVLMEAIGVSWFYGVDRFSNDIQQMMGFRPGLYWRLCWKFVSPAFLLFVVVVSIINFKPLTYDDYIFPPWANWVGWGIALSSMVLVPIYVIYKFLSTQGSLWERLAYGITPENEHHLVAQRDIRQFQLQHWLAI
Experimental: (§1) Transporter Binding and Cellular Uptake. All described monoamine transporter binding studies as well as cellular uptake assays were performed in duplicate by CEREP (Celle l'Evescault, France) and are described below. Further details of all assays performed may be accessed at the CEREP web site (world-wide-web at cerep.com). Cellular-based assays were conducted to provide complementary in vitro functional measures to complement the standard transporter assays as well as to provide direct comparisons of the homologs IPH with MPH with regard to DA, NE, and 5-HT uptake in synaptosomal preparations.
Norepinephrine Transporter Binding Assay. Evaluation of the affinity of the two compounds for the human norepinephrine (NE) transporter (NET) in transfected CHO cells was determined in a radioligand assay analogous to the procedures described for the DAT assay. Cell membrane homogenates were incubated for 90 min at 4° C. with 1 nM [^3H]nisoxetine in the absence or presence of each test compound in a standard buffer solution. Nonspecific binding was determined in the presence of 1 μM of desipramine. Following incubation, the samples were filtered rapidly under vacuum and rinsed several times with a buffer solution. The filters were then dried and radioactivity counts were obtained. The results are expressed as percent inhibition of the control radioligand specific binding. The standard reference compound was the tricyclic antidepressant (TCA) protriptyline, which was tested in each experiment at several concentrations to generate a competition curve from which its IC50 was calculated.

[3] = test system: 5-HT uptake, synaptosomes prepared from the rat brain; assay: Serotonin uptake into synaptosomes; type: cell-based
Experimental: as §1
Serotonin Uptake. The assessment of the relative effects of IPH and MPH on 5-HT uptake utilized measures of [^3H]5-HT incorporation into synaptosomes prepared from the rat brain. […] Following incubation, the samples were filtered, counted using a scintillation instrument, and the results expressed as a percent inhibition of the control uptake of [^3H]5-HT. The standard inhibitory reference compound was the TCA imipramine, which was tested in each experiment at several concentrations to obtain an inhibition curve from which its IC50 value was calculated.

| SMILES | substrate quality for hCES1 hydrolysis ([1]; 37° C.) | NET affinity of IPH relative to MPH ([2]; 10 μM, inhibition of specific control binding) | % inhibition of control specific binding, NET (h) ([2]; 10 μM, ligand [3H]nisoxetine, transfected CHO cells, HCl salts) | % inhibition of control specific binding; [3H]5-HT incorporation into synaptosomes ([3]; 10 μM) | catalytic efficiency of hCES1-mediated hydrolysis, MPH relative to IPH ([1]; 0.5 mg/ml hCES1, 37° C., RA formation by HPLC) | inhibition at 10 µM ([2]; ligand [3H]nisoxetine, transfected CHO cells, HCl salts, read-out: % inhibition of control specific binding, NET (h)) | inhibition at 10 µM ([3]; read-out: % inhibition of control specific binding, [3H]5-HT incorporation into synaptosomes) |
| --- | --- | --- | --- | --- | --- | --- | --- |
| CC(C)OC(=O)C(c1ccccc1)C1CCCCN1 (racemic) [IPH, dl-threo-α-phenyl-2-piperidineacetic acid isopropyl ester] | poor substrate of hCES1 | one-third | 27% | 28% |  |  |  |
| COC(=O)C(c1ccccc1)C1CCCCN1 (racemic) [MPH, dl-threo-methylphenidate, reference compound] |  |  |  |  | approximately 10 fold | 88% | 35% |
